Reference: patent US20240247048A1 (EMORY UNIVERSITY, priority 2021, published 2024)

Experiments:
[1] = system: wild type and VPAC2 KO Panc02 cells; assay: MTT viability of wild type and VPAC2 KO Panc02 cells; type: cell-based, mouse; settings: 3 uM for 72 hours; FIG. 24f
Experimental: (FIG. 24A) Percentage viability of murine (MT5, KPC.Luc, Panc02) and human (Capan02, BxPC3) PDAC cell lines cultured in the presence of different concentrations ranging from 0-5 μM of ANT008 for 72 hours is plotted. Confirmation of CRISPR-Cas9 KO of VIPR2 encoding VPAC2 receptor via (FIG. 24B) western blot; (FIG. 24C) RT-PCR using primers targeting exon 9-12 downstream of targeted site and (FIG. 24D) Sanger Sequencing showing the validation of in-del mutation in exon 2. In vitro MTT assay showing (FIG. 24E) Proliferation of WT and KO cells over 72 hours; (FIG. 24F) Percent viability of wild type (WT) and VPAC2 KO (KO) Panc02 cells treated with ANT008 and ANT308 at 3 μM for 72 hours. (FIG. 24G) Tumor growth curve of WT versus KO Panc02 cells in C57BL/6 mice following subcutaneous tumor implantation. Values represent median tumor volume±95% confidence interval. (FIG. 24H) Kaplan-Meier survival plots corresponding to results in FIG. 24G. Median survival time for WT is 21 days and 28 days for VPAC2 KO. Error bars represent mean and standard deviation. *p<0.05, **p<0.01.
Cell viability assay. […] Cell viability was assessed using cell proliferation kit I from Roche (Basel, Switzerland), following the manufacturer's instructions. […] This was followed by incubation with solubilization buffer overnight and reading the absorbance at 570 nm. […]

[2] = system: phospho-CREB downstream of VPAC1/2 receptor; assay: phosphorylation of CREB in activated human T cells; type: cell-based; settings: 6 h, 3 uM, compared with control scrambled peptide; FIG. 17e
Experimental: (FIG. 17A) Representative western blot and (FIG. 17B) quantified expression levels of VPAC1 and VPAC2; and (FIG. 17C) PD-1 and CTLA-4 in lysates of healthy human T cells expanded with plate bound human anti-CD3 antibodies for 0, 3, 6, 12, 24, 48 and 72 hours. Lower molecular weight band of 25kD shown for VPAC2-specific expression as confirmed from our VPAC2 KO model. Percentage of (FIG. 17D) CD69 expression at 24 h post activation (FIG. 17E) phosphorylation of CREB (phospho-CREB) downstream of VPAC1/2 receptor at 6 h and in CD4+ and CD8+ T cells normalized to levels in control with no peptide. PDAC patient peripheral blood T cells were expanded for 9 days with plate bound human anti-CD3 antibodies+/−ANT008 and the (FIG. 17F) percentage of Tregs was quantified using the (FIG. 17G) gating strategy shown. Percentage of PD1+, Tim-3+, Lag3+, PD1+Tim-3+, PD1+Lag3+ and PD1+Tim-3+Lag-3+(triple positive) in (FIG. 17H) CD4+ and (FIG. 17I) CD8+ subsets is shown. Statistical differences in FIGS. 17D and 17E were calculated via repeated measures ANOVA followed by Dunnett's post-test where each sample in the treatment group was compared to the matched sample in the control group (scrambled treated). Statistical differences in FIGS. 17F, 17H, and 17I were calculated via paired student T-test. Error bars show mean±SEM. […], **p<0.01 and ***p<0.001. […]

With KPRRPYTSDYTRLRKQMAVKKYLNLILN [ANT308] the “in vitro growth of VPAC2 knockout or wild-type Panc02 cells” value [1] was “did not inhibit” and the “activation-induced phosphorylation of CREB” value [2] was “more potently inhibited”.
